Patent US20120108811A1, “PROCESS FOR PREPARING TEMOZOLOMIDE” (FORMOSA LABORATORIES INC., priority 2010, published 2012)

Key:
[1] = Long-term stability of Temozolomide prepared by the process of the present invention, 2-8° C.; assay type: physicochemical; conditions: process of the present invention, 2-8° C.
Description: The Temozolomide was stable at temperature 2-8° C. for at least 18 months.

[2] = Long-term stability of Temozolomide prepared by the process of the present invention, 25° C. ± 2° C., 60% ± 5% RH; assay type: physicochemical; conditions: for AICA NMT 0.15% / Appearance (White to off-white powder) / Assay (HPLC) (98.0-102.0%) / Purity (HPLC) NLT 99.0% / Total impurities NMT 1.00% / Water content (KF), NMT 1.00% / AHX NMT 0.15% / Individual unknown impurity NMT 0.10%: process of the present invention, 25° C. ± 2° C., RH 60% ± 5%
Source text: The Temozolomide was stable at temperature 25 degree ° C. for at least 18 months.

Cn1nnc2c(C(N)=O)ncn2c1=O [Temozolomide, 8-carbamoyl-3-methyl-imidazo[5,1-d]-1,2,3,5-tetrazin-4(3H)-one]
Water content (KF), NMT 1.00% ([1]; 1 month): 0.07% | AICA NMT 0.15% ([1]; 2 months): 0.01% | Appearance (White to off-white powder) ([1]; 2 months): White | Assay (HPLC) (98.0-102.0%) ([1]; 2 months): 99.3% | Purity (HPLC) NLT 99.0% ([1]; 2 months): 100.0% | Total impurities NMT 1.00% ([1]; 2 months): 0.01% | Water content (KF), NMT 1.00% ([1]; 2 months): 0.04% | AICA NMT 0.15% ([1]; 3 months): 0.09% | Appearance (White to off-white powder) ([1]; 3 months): White | Assay (HPLC) (98.0-102.0%) ([1]; 3 months): 99.6% | Purity (HPLC) NLT 99.0% ([1]; 3 months): 99.7% | Total impurities NMT 1.00% ([1]; 3 months): 0.09% | Water content (KF), NMT 1.00% ([1]; 3 months): 0.09% | Appearance (White to off-white powder) ([1]; 6 months): White | Assay (HPLC) (98.0-102.0%) ([1]; 6 months): 99.9% | Purity (HPLC) NLT 99.0% ([1]; 6 months): 100.0% | Water content (KF), NMT 1.00% ([1]; 6 months): 0.12% | AICA NMT 0.15% ([1]; 9 months): 0.01% | Appearance (White to off-white powder) ([1]; 9 months): White | Assay (HPLC) (98.0-102.0%) ([1]; 9 months): 100.8% | Purity (HPLC) NLT 99.0% ([1]; 9 months): 100.0% | Total impurities NMT 1.00% ([1]; 9 months): 0.01% | Water content (KF), NMT 1.00% ([1]; 9 months): 0.15% | AICA NMT 0.15% ([1]; 12 months): 0.02% | Appearance (White to off-white powder) ([1]; 12 months): Light pink | Assay (HPLC) (98.0-102.0%) ([1]; 12 months): 99.8% | Purity (HPLC) NLT 99.0% ([1]; 12 months): 100.0% | Total impurities NMT 1.00% ([1]; 12 months): 0.02% | Water content (KF), NMT 1.00% ([1]; 12 months): 0.06% | Appearance (White to off-white powder) ([1]; 18 months): White | Assay (HPLC) (98.0-102.0%) ([1]; 18 months): 99.8% | Purity (HPLC) NLT 99.0% ([1]; 18 months): 100.0% | Water content (KF), NMT 1.00% ([1]; 18 months): 0.16% | Time stable ([2]; prepared by the process of the present invention, temperature 25 degree ° C.): at least 18 months | AICA NMT 0.15% ([2]; 0 time): 0.01% | Appearance (White to off-white powder) ([2]; 0 time): White | Assay (HPLC) (98.0-102.0%) ([2]; 0 time): 99.7% | Purity (HPLC) NLT 99.0% ([2]; 0 time): 100.0% | Total impurities NMT 1.00% ([2]; 0 time): 0.01% | Water content (KF), NMT 1.00% ([2]; 0 time): 0.09% | AICA NMT 0.15% ([2]; 1 month): 0.01% | Appearance (White to off-white powder) ([2]; 1 month): White | Assay (HPLC) (98.0-102.0%) ([2]; 1 month): 100.0% | Purity (HPLC) NLT 99.0% ([2]; 1 month): 100.0% | Total impurities NMT 1.00% ([2]; 1 month): 0.01% | Water content (KF), NMT 1.00% ([2]; 1 month): 0.12% | AICA NMT 0.15% ([2]; 2 months): 0.01% | Appearance (White to off-white powder) ([2]; 2 months): White | Assay (HPLC) (98.0-102.0%) ([2]; 2 months): 99.4% | Purity (HPLC) NLT 99.0% ([2]; 2 months): 100.0% | Total impurities NMT 1.00% ([2]; 2 months): 0.01% | Water content (KF), NMT 1.00% ([2]; 2 months): 0.04% | AHX NMT 0.15% ([2]; 3 months): 0.01% | AICA NMT 0.15% ([2]; 3 months): 0.11% | Appearance (White to off-white powder) ([2]; 3 months): White | Assay (HPLC) (98.0-102.0%) ([2]; 3 months): 99.4% | Purity (HPLC) NLT 99.0% ([2]; 3 months): 99.7% | Total impurities NMT 1.00% ([2]; 3 months): 0.11% | Water content (KF), NMT 1.00% ([2]; 3 months): 0.11% | Appearance (White to off-white powder) ([2]; 6 months): White | Assay (HPLC) (98.0-102.0%) ([2]; 6 months): 99.3% | Purity (HPLC) NLT 99.0% ([2]; 6 months): 100.0% | Water content (KF), NMT 1.00% ([2]; 6 months): 0.13% | AICA NMT 0.15% ([2]; 9 months): 0.02% | Appearance (White to off-white powder) ([2]; 9 months): White | Assay (HPLC) (98.0-102.0%) ([2]; 9 months): 100.8% | Purity (HPLC) NLT 99.0% ([2]; 9 months): 99.9% | Total impurities NMT 1.00% ([2]; 9 months): 0.02% | Water content (KF), NMT 1.00% ([2]; 9 months): 0.17% | AHX NMT 0.15% ([2]; 12 months): 0.01% | AICA NMT 0.15% ([2]; 12 months): 0.02% | Appearance (White to off-white powder) ([2]; 12 months): Light pink | Assay (HPLC) (98.0-102.0%) ([2]; 12 months): 99.8% | Individual unknown impurity NMT 0.10% ([2]; 12 months): 0.01% | Purity (HPLC) NLT 99.0% ([2]; 12 months): 99.9% | Total impurities NMT 1.00% ([2]; 12 months): 0.04% | Water content (KF), NMT 1.00% ([2]; 12 months): 0.04% | AICA NMT 0.15% ([2]; 18 months): 0.01% | Appearance (White to off-white powder) ([2]; 18 months): White | Assay (HPLC) (98.0-102.0%) ([2]; 18 months): 99.4% | Individual unknown impurity NMT 0.10% ([2]; 18 months): 0.01% | Purity (HPLC) NLT 99.0% ([2]; 18 months): 100.0% | Total impurities NMT 1.00% ([2]; 18 months): 0.02% | Water content (KF), NMT 1.00% ([2]; 18 months): 0.07%
